Values of other authors in paper PMC2363502.
Like-named read-outs stand apart in the source and are kept apart here.

Experiments:
[1] = design: method as in unpublished; settings: rat, basis of starting dose; ref unpublished; cited from earlier work
[2] = test system: S-adenosylmethionine decarboxylase (SAMDC); settings: cited from earlier work
[3] = test system: L-1210 leukaemia; design: method as in Dorhout et al, 1995; settings: treated L-1210 leukaemia-bearing animals; ref Dorhout et al, 1995; cited from earlier work

In the case of `N=C(N)c1cccc2c1CCC2=NN=C(N)N` [SAM486A], the no-adverse-effect level [1] is listed as 0.06 mg/kg/day, the “fold more active than MGBG” value ([2]; SAMDC inhibition in vitro, ref Regenass et al, 1994) is listed as “approximately 200 fold” and the IC50 ([2]; as quoted in results and discussion, read-out: IC50 required in in vitro experiments for inhibition of SAMDC) is listed as 4.7 nM. The “IC50 for inhibition of SAMDC as plasma concentration” value ([2]; as quoted in results) was 1.1 ng/mL, the IC50 ([2]; in vitro, ref Regenass et al, 1994, read-out: IC50 for SAMDC) was 4.7 nM and the “SAMDC activity and putrescine pools in tumours” value [3] was “decreased SAMDC activity and elevated putrescine pools”.
